The text below walks through data of patent publication US11110082B2, “Tyrosine kinase inhibitors” (Rigel Pharmaceuticals, Inc., priority 2016, dated 2021).

The assay deals with T1, MerTK (Homo sapiens, UniProt Q12866).
T1 construct: Seed HUVECs (10K cells/well) in EBM-2 complete media; host or cells: HUVEC (primary human umbilical vein endothelial cells)
T1 sequence (Q12866 21-999): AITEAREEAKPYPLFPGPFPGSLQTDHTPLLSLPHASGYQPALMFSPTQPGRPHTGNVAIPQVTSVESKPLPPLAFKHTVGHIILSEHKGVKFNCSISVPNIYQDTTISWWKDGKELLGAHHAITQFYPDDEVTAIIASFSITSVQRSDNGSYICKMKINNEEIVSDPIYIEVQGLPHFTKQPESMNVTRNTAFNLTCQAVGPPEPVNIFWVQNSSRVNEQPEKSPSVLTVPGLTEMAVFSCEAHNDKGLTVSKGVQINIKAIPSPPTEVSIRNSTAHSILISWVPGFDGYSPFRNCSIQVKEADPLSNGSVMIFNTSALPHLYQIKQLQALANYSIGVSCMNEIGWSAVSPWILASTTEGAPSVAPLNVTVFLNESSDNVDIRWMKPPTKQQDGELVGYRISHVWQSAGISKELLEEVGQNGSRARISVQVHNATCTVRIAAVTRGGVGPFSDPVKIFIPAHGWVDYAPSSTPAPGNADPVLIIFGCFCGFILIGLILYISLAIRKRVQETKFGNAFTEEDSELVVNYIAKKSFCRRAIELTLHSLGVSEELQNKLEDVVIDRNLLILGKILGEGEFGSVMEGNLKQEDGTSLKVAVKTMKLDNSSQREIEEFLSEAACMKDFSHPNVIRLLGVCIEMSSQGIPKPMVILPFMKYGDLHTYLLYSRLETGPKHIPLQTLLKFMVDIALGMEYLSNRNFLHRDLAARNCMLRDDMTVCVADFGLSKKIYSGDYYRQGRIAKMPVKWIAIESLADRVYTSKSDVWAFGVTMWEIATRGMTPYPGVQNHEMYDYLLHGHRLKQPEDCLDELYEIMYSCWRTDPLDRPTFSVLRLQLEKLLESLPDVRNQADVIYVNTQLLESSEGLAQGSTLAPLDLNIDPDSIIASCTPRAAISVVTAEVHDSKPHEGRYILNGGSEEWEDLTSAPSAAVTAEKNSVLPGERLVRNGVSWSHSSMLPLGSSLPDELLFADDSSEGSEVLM
Nature of the assay: PAKT HTRF-HUVEC assay (pAkt Ser473 HTRF after anti-human MerTK-XL stimulation). It counts as cell-based. As to conditions: HUVEC cells, 1 hour compound, stimulated with anti-human MerTK-XL 1 ug/mL for 10 minutes, read-out: inhibition of MerTK. Summed up: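 HUVECs starved 3-4 h in basal medium, preincubated with compound 1 h at 37° C, then stimulated 10 min with cross-linked anti-human MerTK antibody (final 1 ug/mL). Lysates read for pAkt (Ser473) by HTRF; EC50 from curve fitting.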
On the technique in general: In TR-FRET formats the signal depends on donor and acceptor labels being close together.

On to `CCC[C@H](C)Nc1ncc2c3ccc(CN4CCN(C)CC4)cc3c(=O)n([C@H]3CC[C@H](O)CC3)c2n1` [Compound 213, trans-5-(4-hydroxycyclohexyl)-8-((4-methylpiperazin-1-yl)methyl)-3-(((S)-pentan-2-yl)amino)pyrimido[4,5-c]isoquinolin-6(5H)-one], for which the EC50 was 30.4 nM. With `O=c1c2cc(CN3CCCCC3)ccc2c2cnc(NCC3CC3)nc2n1[C@H]1CC[C@H](O)CC1` [Compound 202, trans-3-((Cyclopropylmethyl)amino)-5-(4-hydroxycyclohexyl)-8-(piperidin-1-ylmethyl)pyrimido[4,5-c]isoquinolin-6(5H)-one], the EC50 was 47.3 nM. For `CCCCNc1ncc2c3ccc(N4CCN(C(C)C)CC4)cc3c(=O)n(C3CCC(=O)CC3)c2n1` [Compound 70, 3-(Butylamino)-8-(4-isopropylpiperazin-1-yl)-5-(4-oxocyclohexyl)pyrimido[4,5-c]isoquinolin-6(5H)-one] the value was 184 nM; for `CN1CCN(Cc2ccc3c(c2)c(=O)n([C@H]2CC[C@H](C(=O)O)CC2)c2nc(NCC4CC4)ncc32)CC1` [Compound 135, trans-4-(3-((Cyclopropylmethyl)amino)-8-((4-methylpiperazin-1-yl)methyl)-6-oxopyrimido[4,5-c]isoquinolin-5(6H)-yl)cyclohexane-1-carboxylic Acid], 4040 nM; for `O=c1c2cc(CC3CCNCC3)ccc2c2cnc(NCC3CC3)nc2n1[C@H]1CC[C@H](O)CC1` [Compound 207, trans-3-((Cyclopropylmethyl)amino)-5-(4-hydroxycyclohexyl)-8-(piperidin-4-ylmethyl)pyrimido[4,5-c]isoquinolin-6(5H)-one], 537 nM. For `O=c1c2cc(CN3CCC4(CC3)COC4)ccc2c2cnc(NC3CC(F)(F)C3)nc2n1[C@H]1CC[C@H](O)CC1` [Compound 210, trans-8-((2-Oxa-7-azaspiro[3.5]nonan-7-yl)methyl)-3-((3,3-difluorocyclobutyl)amino)-5-(4-hydroxycyclohexyl)pyrimido[4,5-c]isoquinolin-6(5H)-one] the value was 85.6 nM; for `CCCCNc1ncc2c3ccc(N4CCOCC4)cc3c(=O)n([C@H]3CC[C@H](O)CC3)c2n1` [Compound 62, trans-3-(Butylamino)-5-(4-hydroxycyclohexyl)-8-morpholinopyrimido[4,5-c]isoquinolin-6(5H)-one], 95.2 nM. For `CCCCNc1ncc2c3ccc(CN4CCOCC4)cc3c(=O)n([C@H]3CC[C@@H](O)CC3)c2n1` [Compound 4, cis-3-(Butylamino)-5-(4-hydroxycyclohexyl)-8-(morpholinomethyl)pyrimido [4,5-c]isoquinolin-6(5H)-one] the value was 174 nM. For `CCOC1CCN(Cc2ccc3c(c2)c(=O)n(C2CCC(O)CC2)c2nc(NCC4CC4)ncc32)CC1` (stereo not shown) [Compound 144, 3-((cyclopropylmethyl)amino)-8-((4-ethoxypiperidin-1-yl)methyl)-5-((1s,4s)-4-hydroxycyclohexyl)pyrimido[4,5-c]isoquinolin-6(5H)-one], the EC50 is 57.3 nM. As to `O=c1c2cc(CN3CCC(c4ccncc4)CC3)ccc2c2cnc(NC3CCC3)nc2n1[C@H]1CC[C@H](O)CC1` [Compound 227, trans-3-(Cyclobutylamino)-5-(4-hydroxycyclohexyl)-8-((4-(pyridin-4-yl)piperidin-1-yl)methyl)pyrimido[4,5-c]isoquinolin-6(5H)-one], the EC50 was found to be 2.4 nM. Regarding `O=c1c2cc(CN3CCSCC3)ccc2c2cnc(NCC3CC3)nc2n1[C@H]1CC[C@H](O)CC1` [Compound 53, trans-3-((Cyclopropylmethyl)amino)-5-(4-hydroxycyclohexyl)-8-(thiomorpholinomethyl)pyrimido [4,5-c]isoquinolin-6(5H)-one], the EC50 turned out to be 36.3 nM. Consider `O=c1c2cc(N3CCN(C4CC4)CC3)ccc2c2cnc(NCC3CC3)nc2n1[C@H]1CC[C@H](O)CC1` [Compound 177], for which the EC50 was 483 nM. For `O=c1c2cc(CN3CCS(=O)(=O)CC3)ccc2c2cnc(NCC3CC3)nc2n1[C@H]1CC[C@H](O)CC1` [Compound 49, trans-3-((Cyclopropylmethyl)amino)-8-((1,1-dioxidothiomorpholino)methyl)-5-(4-hydroxycyclohexyl)pyrimido [4,5-c]isoquinolin-6(5H)-one] the value was 221 nM. For `C[C@]1(O)CC[C@H](n2c(=O)c3cc(CN4CCN(C5COC5)CC4)ccc3c3cnc(NCC4CC4)nc32)CC1` [Compound 36, trans-3-((Cyclopropylmethyl)amino)-5-(4-hydroxy-4-methylcyclohexyl)-8-((4-(oxetan-3-yl)piperazin-1-yl)methyl)pyrimido[4,5-c]isoquinolin-6(5H)-one] the value was 16.8 nM; for `NC(=O)C1CCN(Cc2ccc3c(c2)c(=O)n([C@H]2CC[C@H](O)CC2)c2nc(NCC4CC4)ncc32)CC1` [Compound 203, trans-1-((3-((Cyclopropylmethyl)amino)-5-(4-hydroxycyclohexyl)-6-oxo-5,6-dihydropyrimido[4,5-c]isoquinolin-8-yl)methyl)piperidine-4-carboxamide], 167 nM; for `O=c1c2cc(CN3CC[N+]4([O-])CCC3CC4)ccc2c2cnc(NCC3CC3)nc2n1[C@H]1CC[C@H](O)CC1` [Compound 162], 11900 nM. As to `CN1CCN(c2ccc3c(c2)c(=O)n(C2CCC(C)(O)CC2)c2nc(NCC4CC4)ncc32)CC1` (stereo not drawn) [Compound 97, trans-3-((Cyclopropylmethyl)amino)-5-(4-hydroxy-4-methylcyclohexyl)-8-(4-methylpiperazin-1-yl)pyrimido[4,5-c]isoquinolin-6(5H)-one], the EC50 stood at 69.1 nM. For the compound `C[C@@H]1CN(c2ccc3c(c2)c(=O)n([C@H]2CC[C@H](O)CC2)c2nc(NCC4CC4)ncc32)[C@@H](C)CN1C` [Compound 107, trans-3-((Cyclopropylmethyl)amino)-5-(4-hydroxycyclohexyl)-8-((2S,5R)-2,4,5-trimethylpiperazin-1-yl)pyrimido[4,5-c]isoquinolin-6(5H)-one], the EC50 was 58.2 nM. For `CCCCNc1ncc2c3ccc(N4CCC(N5CCCC5)CC4)cc3c(=O)n(C3CCC(=O)CC3)c2n1` [Compound 72, 3-(Butylamino)-5-(4-oxocyclohexyl)-8-(4-(pyrrolidin-1-yl)piperidin-1-yl)pyrimido[4,5-c]isoquinolin-6(5H)-one] the value was 220 nM; for `O=c1c2cc(CN3CC[N@+]4([O-])CC[C@@H]3CC4)ccc2c2cnc(NCC3CC3)nc2n1C1CCC(O)CC1` (relative stereo) [Compound 51, trans-4-((3-((Cyclopropylmethyl)amino)-5-(4-hydroxycyclohexyl)-6-oxo-5,6-dihydropyrimido[4,5-c]isoquinolin-8-yl)methyl)-1,4-diazabicyclo[3.2.2]nonane 1-oxide], 11900 nM. For `CCCCNc1ncc2c3ccc(CN4CCN(C)CC4)cc3c(=O)n(CC3CCC(N)CC3)c2n1` (stereo not shown) [Compound 10, 5-((4-Aminocyclohexyl)methyl)-3-(butylamino)-8-((4-methylpiperazin-1-yl)methyl)pyrimido[4,5-c]isoquinolin-6(5H)-one] the value was 146 nM; for `CCCCNc1ncc2c3ccccc3c(=O)n([C@H]3CC[C@@](C)(O)CC3)c2n1` [Compound 115, cis-3-(Butylamino)-5-(4-hydroxy-4-methylcyclohexyl)pyrimido [4,5-c]isoquinolin-6(5H)-one], 554 nM.
